Laboratory results from US11992494B2, “Cyclopentathiophene carboxamide derivatives as platelet activating factor receptor antagonists” (Boehringer Ingelheim International GmbH, priority 2021, dated 2024).

Target: PAFR (Homo sapiens, UniProt P25105)
Experiment: cellular HTRF IP1 assay: inhibition of PAFR activation by PAF C-16 ligand (endpoint assay)
Type: cell-based
Design: expressed in transfected cells; host or cells: HEK293
Method: The ability of compounds of formula (I) to inhibit the activation of the PAF receptor (PAFR) by the PAF C-16 ligand (PAF) is determined using the following cellular HTRF IP1 assay (IP1 Gq assay kit from Cisbio, Cat. no.: 62IP1APEJ) in assay buffer (1×HBSS, 20 mM Hepes, pH 7.4, 50 mM LiCl and containing 0.1% (w/v) BSA):
Evaluation of the Inhibition of PAFR Activation Using an Endpoint Assay
HEK293 cells overexpressing human PAFR (produced in-house) are seeded into a Poly-D-Lysine coated 384 well white cell culture microtiter assay plate with lid (15.000 cells per well). Subsequently, the plates are incubated over night at 37° C./5% CO2. On the next day, cells are being washed and subsequently, various concentrations of the test compounds (compounds in 100% DMSO; final concentration of DMSO in wells is 1%) are added to the assay plate via Echo 555 acoustic liquid handler. Plates are then incubated with lid for 90 minutes at 37° C./5% CO2. Thereafter, PAF ligand (Cayman Chemical Company, Item no.: 60900) is added at a final concentration of 11 nM. Plates are then incubated with lid for 60 minutes at 37° C./5% CO2. Then, 5 μl per well of Anti-IP1-Antibody-Cryptate solution and 5 μl per well of IP1-d2 solution are added to all wells of the plate and the plate is incubated for another 60 minutes light protected at room temperature. The emissions at 620 nm and 665 nm (Excitation wavelength: 320 nm) are measured using an Envision Reader (PerkinElmer).

[1] = HEK293 cells overexpressing human PAFR, PAF ligand 11 nM, Table 2
[2] = dedicated head-to-head comparison assay run: cyclopropylene vs di-methyl / cyclobutylene analogues

PAFR, sequence (P25105 whole entry): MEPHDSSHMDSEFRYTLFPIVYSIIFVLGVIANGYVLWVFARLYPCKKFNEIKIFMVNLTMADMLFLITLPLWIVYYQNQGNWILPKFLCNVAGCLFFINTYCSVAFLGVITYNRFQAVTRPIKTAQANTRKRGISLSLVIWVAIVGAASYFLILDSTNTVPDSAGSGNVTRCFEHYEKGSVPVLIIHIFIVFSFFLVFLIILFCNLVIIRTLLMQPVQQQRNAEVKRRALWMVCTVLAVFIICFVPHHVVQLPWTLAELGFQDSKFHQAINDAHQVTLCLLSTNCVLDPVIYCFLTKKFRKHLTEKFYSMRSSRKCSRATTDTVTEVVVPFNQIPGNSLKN

Row | Compound | IC50 [1] | IC50 [2] | IC50 (S-bepafant and its methylated derivatives in the above-mentioned assay)
1 | Cc1nnc2n1-c1sc3c(c1C(c1ccccc1Cl)=NC21CC1)C[C@H](C(=O)NC1CCOC(C)(C)C1)C3 (stereo partly shown) [Example 33] | 11 nM | – | –
2 | Cc1nnc2n1-c1sc3c(c1C(c1ccccc1Cl)=NC2(C)C)C[C@H](C(=O)N1CCOCC1)C3 [comparative example 1, reference compound] | – | 89 nM | –
3 | Cc1nnc2n1-c1sc3c(c1C(c1ccccc1Cl)=NC2(C)C)C[C@H](C(=O)NC1CCc2cc(F)ccc21)C3 (stereo partly shown) [reference compound] | – | 4.9 nM | –
4 | COc1ccccc1C1=NC2(CC2)c2nnc(C)n2-c2sc3c(c21)C[C@H](C(=O)N1CCOCC1)C3 [Example 130, (13′S)-9′-(2-methoxyphenyl)-3′-methyl-13′-(morpholine-4-carbonyl)-16′-thia-2′,4′,5′,8′-tetraazaspiro[cyclopropane-1,7′-tetracyclo[8.6.0.0^2,6.0^11,15]hexadecane]-1′(10′),3′,5′,8′,11′(15′)-pentaene] | 84 nM | – | –
5 | Cc1nnc2n1-c1sc3c(c1C(c1ccccc1Cl)=NC21CC1)C[C@H](C(=O)NC1CCC12CCOCC2)C3 (stereo partly shown) [Example 64] | 8.6 nM | – | –
6 | Cc1nnc2n1-c1sc3c(c1C(c1ccccc1Cl)=NC21CC1)C[C@H](C(=O)N(C)C1CCS(=O)(=O)C1)C3 (stereo partly shown) [Example 89] | 15 nM | – | –
7 | Cc1nnc2n1-c1sc3c(c1C(c1ccccc1Cl)=NC21CC1)C[C@H](C(=O)N[C@@H]1CCc2c1ccnc2N)C3 [Example 103] | 14 nM | – | –
8 | Cc1nnc2n1-c1sc3c(c1C(c1ccccc1Cl)=NC21CC1)C[C@H](C(=O)N[C@H]1CCN(c2ncccn2)C1)C3 [Example 62] | 6.5 nM | – | –
9 | Cc1nnc2n1-c1sc3c(c1C(c1ccccc1Cl)=NC21CCC1)C[C@H](C(=O)N1CCOCC1)C3 [comparative example 2, reference compound] | – | 59 nM | –
10 | Cc1nnc2n1-c1sc3c(c1C(c1ccccc1Cl)=NC21CC1)C[C@H](C(=O)N(C)[C@@H]1CCOC1)C3 [Example 48] | 6.7 nM | – | –
11 | Cc1nnc2n1-c1sc3c(c1C(c1ccccc1Cl)=NC21CC1)C[C@H](C(=O)N(C)[C@H]1CCCC[C@H]1O)C3 [Example 102] | 6.9 nM | – | –
12 | CCCNC(=O)[C@@H]1Cc2sc3c(c2C1)C(c1ccccc1Cl)=NC(C)(C)c1nnc(C)n1-3 [reference compound] | – | 29 nM | –
13 | Cc1nnc2n1-c1sc3c(c1C(c1ccccc1Cl)=NC21CC1)C[C@H](C(=O)N[C@@H](C)CF)C3 [Example 125] | 5.8 nM | – | –
14 | Cc1nnc2n1-c1sc3c(c1C(c1ccccc1Cl)=N[C@H]2C)C[C@H](C(=O)N1CCOCC1)C3 [comparative example 1a, reference compound] | – | – | 6.9 nM
15 | CCn1ncc2c1CC[C@H](NC(=O)[C@@H]1Cc3sc4c(c3C1)C(c1ccccc1Cl)=NC1(CC1)c1nnc(C)n1-4)C2 [Example 100] | 22 nM | – | –
16 | CCN(C(=O)[C@@H]1Cc2sc3c(c2C1)C(c1ccccc1Cl)=NC1(CC1)c1nnc(C)n1-3)[C@H]1CC[C@H](O)CC1 [Example 20] | 11 nM | – | –
17 | Cc1nnc2n1-c1sc3c(c1C(c1ccccc1Cl)=NC21CC1)C[C@H](C(=O)NC1CCc2cc(F)ccc21)C3 (stereo partly shown) [Example 61] | 0.6 nM | 1.1 nM | –
18 | Cc1nnc2n1-c1sc3c(c1C(c1ccccc1Cl)=NC21CC1)C[C@H](C(=O)NC1(C)CCOCC1)C3 [Example 45] | 12 nM | – | –
19 | CCc1nnc2n1-c1sc3c(c1C(c1ccccc1Cl)=NC21CC1)C[C@H](C(=O)N1CCOCC1)C3 [Example 119, (13′S)-9′-(2-chlorophenyl)-3′-ethyl-13′-(morpholine-4-carbonyl)-16′-thia-2′,4′,5′,8′-tetraazaspiro[cyclopropane-1,7′-tetracyclo[8.6.0.0^2,6.0^11,15]hexadecane]-1′(10′),3′,5′,8′,11′(15′)-pentaene] | 15 nM | – | –
20 | Cc1nnc2n1-c1sc3c(c1C(c1cc(N)ccc1Cl)=NC21CC1)C[C@H](C(=O)N1CCOCC1)C3 [Example 6, 4-chloro-3-[(13′S)-3′-methyl-13′-(morpholine-4-carbonyl)-16′-thia-2′,4′,5′,8′-tetraazaspiro[cyclopropane-1,7′-tetracyclo[8.6.0.0^2,6.0^11,15]hexadecane]-1′(10′),3′,5′,8′,11′(15′)-pentaen-9′-yl]aniline] | 25 nM | – | –

The remaining lines, values ahead:

Row | IC50 [1] | IC50 [2] | IC50 (S-bepafant and its methylated derivatives in the above-mentioned assay) | Compound
21 | 3.1 nM | – | – | Cc1nnc2n1-c1sc3c(c1C(c1ccccc1Cl)=NC21CC1)C[C@H](C(=O)N[C@H]1COC[C@H]1c1ccccc1)C3 [Example 39]
22 | 2.2 nM | – | – | Cc1nnc2n1-c1sc3c(c1C(c1ccccc1Cl)=NC21CC1)C[C@H](C(=O)N[C@H]1C[C@@H]1C)C3 [Example 12]
23 | 1.1 nM | – | – | Cc1nnc2n1-c1sc3c(c1C(c1ccccc1Cl)=NC21CC1)C[C@H](C(=O)NC1(c2cccc(F)c2)CC1)C3 [Example 56]
24 | 3.4 nM | – | – | Cc1nnc2n1-c1sc3c(c1C(c1ccccc1Cl)=NC21CC1)C[C@H](C(=O)NC1(C)CC1)C3 [Example 18]
25 | 4.1 nM | – | – | Cc1nnc2n1-c1sc3c(c1C(c1ccccc1Cl)=NC21CC1)C[C@H](C(=O)NC1(C(F)(F)F)CC1)C3 [Example 16]
26 | 1.5 nM | – | – | Cc1nnc2n1-c1sc3c(c1C(c1ccccc1Cl)=NC21CC1)C[C@H](C(=O)N(C)C1CCCCCC1)C3 [Example 75]
27 | 1.6 nM | – | – | Cc1nnc2n1-c1sc3c(c1C(c1ccccc1Cl)=NC21CC1)C[C@H](C(=O)NC1CCCCC1)C3 [Example 59]
28 | 1.6 nM | – | – | Cc1nnc2n1-c1sc3c(c1C(c1ccccc1Cl)=NC21CC1)C[C@H](C(=O)NC1CCC1(C)C)C3 (stereo partly shown) [Example 47]
29 | 1.7 nM | 2 nM | – | Cc1nnc2n1-c1sc3c(c1C(c1ccccc1Cl)=NC21CC1)C[C@H](C(=O)NC1CCC1)C3 [Example 7, (13′S)-9′-(2-chlorophenyl)-N-cyclobutyl-3′-methyl-16′-thia-2′,4′,5′,8′-tetraazaspiro-[cyclopropane-1,7′-tetracyclo[8.6.0.0^2,6.0^11,15]-hexadecane]-1′(10′),3′,5′,8′,11′(15′)-pentaene-13′-carboxamide]
30 | 3.6 nM | – | – | CCN(C(=O)[C@@H]1Cc2sc3c(c2C1)C(c1ccccc1Cl)=NC1(CC1)c1nnc(C)n1-3)[C@@H]1c2ccccc2C[C@H]1O [Example 81]
31 | 1.8 nM | – | – | Cc1nnc2n1-c1sc3c(c1C(c1ccccc1Cl)=NC21CC1)C[C@H](C(=O)N[C@H]1CC[C@@H](C(F)(F)F)CC1)C3 [Example 52]
32 | 2.8 nM | – | – | Cc1nnc2n1-c1sc3c(c1C(c1ccccc1Cl)=NC21CC1)C[C@H](C(=O)NC1CCC(F)(F)CC1)C3 [Example 118]
33 | 2.6 nM | – | – | Cc1nnc2n1-c1sc3c(c1C(c1ccccc1Cl)=NC21CC1)C[C@H](C(=O)N[C@H]1CC[C@@H](F)C1)C3 [Example 70]
34 | 2.5 nM | 2.6 nM | – | Cc1nnc2n1-c1sc3c(c1C(c1ccccc1Cl)=NC21CC1)C[C@H](C(=O)N1CCC(F)(F)CC1)C3 [Example 129, (13′S)-9′-(2-chlorophenyl)-13′-(4,4-difluoropiperidine-1-carbonyl)-3′-methyl-16′-thia-2′,4′,5′,8′-tetraazaspiro[cyclopropane-1,7′-tetracyclo[8.6.0.0^2,6.0^11,15]hexadecane]-1′(10′),3′,5′,8′,11′(15′)-pentaene]
35 | 1.1 nM | – | – | CCC12CC(NC(=O)[C@@H]3Cc4sc5c(c4C3)C(c3ccccc3Cl)=NC3(CC3)c3nnc(C)n3-5)(C1)C2 [Example 109]
36 | 3.6 nM | – | – | Cc1nnc2n1-c1sc3c(c1C(c1ccccc1Cl)=NC21CC1)C[C@H](C(=O)N1CCC(F)(F)C1)C3 [Example 105, (13′S)-9′-(2-chlorophenyl)-13′-(3,3-difluoro-pyrrolidine-1-carbonyl)-3′-methyl-16′-thia-2′,4′,5′,8′-tetraazaspiro[cyclopropane-1,7′-tetracyclo[8.6.0.0^2,6.0^11,15]hexadecane]-1′(10′),3′,5′,8′,11′(15′)-pentaene]
37 | 2 nM | – | – | Cc1nnc2n1-c1sc3c(c1C(c1ccccc1Cl)=NC21CC1)C[C@H](C(=O)NC1CC2(CCC2)C1)C3 [Example 80]
38 | 1.9 nM | – | – | Cc1nnc2n1-c1sc3c(c1C(c1ccccc1Cl)=NC21CC1)C[C@H](C(=O)NCC1CC1)C3 [Example 68]
39 | 1.7 nM | – | – | Cc1nnc2n1-c1sc3c(c1C(c1ccccc1Cl)=NC21CC1)C[C@H](C(=O)NCCOC(F)(F)F)C3 [Example 67]
40 | 1.3 nM | – | – | Cc1nnc2n1-c1sc3c(c1C(c1ccccc1Cl)=NC21CC1)C[C@H](C(=O)NC12CC(C1)C2)C3 [Example 1, (13′S)—N-{bicyclo[1.1.1]pentan-1-yl}-9′-(2-chlorophenyl)-3′-methyl-16′-thia-2′,4′,5′,8′-tetraazaspiro[cyclopropane-1,7′-tetracyclo[8.6.0.0^2,6.0^11,15]hexadecane]-1′(10′),3′,5′,8′,11′(15′)-pentaene-13′-carboxamide]
41 | 0.9 nM | – | – | Cc1nnc2n1-c1sc3c(c1C(c1ccccc1Cl)=NC21CC1)C[C@H](C(=O)NC1Cc2ccccc2C1)C3 [Example 31]
42 | 2.3 nM | – | – | CO[C@@H]1CCCCC1N(C)C(=O)[C@@H]1Cc2sc3c(c2C1)C(c1ccccc1Cl)=NC1(CC1)c1nnc(C)n1-3 (stereo partly shown) [Example 84]
43 | 1.9 nM | – | – | Cc1nnc2n1-c1sc3c(c1C(c1ccccc1Cl)=NC21CC1)C[C@H](C(=O)NC1CC1(C)C)C3 (stereo partly shown) [Example 40]
